These results are taken from patent publication US6596878B2, “Methods and compositions for inhibiting cell proliferative disorders” (Yissum Research & Development Company of the Hebrew …, priority 1994, dated 2003).

Holding throughout (type): cell-based
In experiment [1] the target is T1, human EGF receptor (Homo sapiens, UniProt P00533).
T1 construct: expressed in transfected cells; host or cells: NIH3T3 clone C7 (EGFR/C7; mouse fibroblasts)
Put plainly: EGF-receptor whole cell kinase assay (EGFR-3T3). The method, then: (§1) The following target cells were used for cellular kinaseassays: NIH3T3 clone C7 (Honegger et al., supra) engineered to over-express human EGF receptor; NIH3T3 cells engineered to over-express a chimeric receptor containing the EGFR extracellular domain and the HER2 intracellular kinase domain; the human mammary carcinoma line BT474 (ATCC HTB2) expressing HER2; and the human glioblastoma line U1242 that expresses PDGFR-β. Growth assays were carried out using human mammary epithelial SKBR3 (ATCC HTB30) cells, SKOV3 (ATCC HTB77) human ovarian cancer cell line, A431 cells, MCF7 human breast carcinoma cells, MCF7 cells overexpress the HER2 kinase (MCF7-HER2), NIH3T3 cells, and NIH3T3 cells overexpressing the HER2 kinase (3T3-HER2).
Unless otherwise stated the effect of various compounds on receptor tyrosine kinases were assayed as described in this section.
1. EGF-receptor Whole Cell Kinase Assay
EGFR kinase activity (EGFR-3T3 assay) in whole cells was measured as described below:
The following protocol was used:
A. Coat ELISA plates (Corning, 96 well, Cat. #25805-96) with 05-101 antibody at 0.5 μg per well in PBS, 150 μl final volume/well, and store overnight at 4° C. Coated plates are good for up to 10 days when stored at 4° C.
B. On day of use, remove coating buffer and replace with blocking buffer (5% Carnation Instant Non-Fat Dry Milk in PBS). Incubate the plate, shaking, at room temperature (about 23° C. to 25° C.) for 30 minutes. Just prior to use, remove blocking buffer and wash plate 4 times with TBST buffer.
A. EGFR/C7 cell line (Honegger, et al., Cell 51:199-209, 1987) can be use for this assay.
B. Choose dishes having 80-90% confluence for the experiment. Trypsinize cells and stop reaction by adding 10% CS DMEM medium. Suspend cells in DMEM medium (10% CS DMEM medium) and centrifuge once at 1000 rpm, and once at room temperature for 5 minutes.
C. Resuspend cells in seeding medium (DMEM, 0.5% bovine serum), and count the cells using trypan blue. Viability above 90% is acceptable. Seed cells in DMEM medium (0.5% bovine serum) at a density of 10,000 cells per well, 100 μl per well, in a 96 well microtiter plate. Incubate seeded cells in 5% CO2 at 37° C. for about 40 hours.
A. Check seeded cells for contamination using an inverted microscope. Dilute drug stock (10 mg/ml in DMSO) 1:10 in DMEM medium, then transfer 5 μl to a test well for a final drug dilution of 1:200 and a final DMSO concentration of […]. Control wells receive DMSO alone. Incubate in 5% CO2 at 37° C. for one hour.
B. Prepare EGF ligand: dilute stock EGF in DMEM so that upon transfer of 10 μl dilute EGF (1:12 dilution), 25 nM final concentration is attained.
C. Prepare fresh HNTG* sufficient for 100 μl per well; and place on ice.
D. After two hours incubation with drug, add prepared EGF ligand to cells, 10 μl per well, to yield a final concentration of 25 nM. Control wells receive DMEM alone. Incubate, shaking, at room temperature, for 5 minutes.
E. Remove drug, EGF, and DMEM. Wash cells twice with PBS. Transfer HNTG* to cells, 100 μl per well. Place on ice for 5 minutes. Meanwhile, remove blocking buffer from other ELISA plate and wash with TBST as described above.
F. With a pipette tip securely fitted to a micropipettor, scrape cells from plate and homogenize cell material by repeatedly aspirating and dispensing the HNTG* lysis buffer. Transfer lysate to a coated, blocked, and washed ELISA plate. Incubate shaking at room temperature for one hour.
G. Remove lysate and wash 4 times with TBST. Transfer freshly diluted anti-Ptyr antibody to ELISA plate at 100 μl per well. Incubate shaking at room temperature for 30 minutes in the presence of the anti-Ptyr antiserum (1:3000 dilution in TBST).
H. Remove the anti-Ptyr antibody and wash 4 times with TBST. Transfer the freshly diluted TAGO anti-rabbit IgG antibody to the ELISA plate at 100 μl per well.

Experiment [2] deals with T2, HER2 (Homo sapiens, UniProt P04626).
T2 construct: the human mammary carcinoma line BT474 (ATCC HTB2) expressing HER2; endogenous in cells; host or cells: BT474 human mammary carcinoma cells
T2 sequence (P04626 23-1255): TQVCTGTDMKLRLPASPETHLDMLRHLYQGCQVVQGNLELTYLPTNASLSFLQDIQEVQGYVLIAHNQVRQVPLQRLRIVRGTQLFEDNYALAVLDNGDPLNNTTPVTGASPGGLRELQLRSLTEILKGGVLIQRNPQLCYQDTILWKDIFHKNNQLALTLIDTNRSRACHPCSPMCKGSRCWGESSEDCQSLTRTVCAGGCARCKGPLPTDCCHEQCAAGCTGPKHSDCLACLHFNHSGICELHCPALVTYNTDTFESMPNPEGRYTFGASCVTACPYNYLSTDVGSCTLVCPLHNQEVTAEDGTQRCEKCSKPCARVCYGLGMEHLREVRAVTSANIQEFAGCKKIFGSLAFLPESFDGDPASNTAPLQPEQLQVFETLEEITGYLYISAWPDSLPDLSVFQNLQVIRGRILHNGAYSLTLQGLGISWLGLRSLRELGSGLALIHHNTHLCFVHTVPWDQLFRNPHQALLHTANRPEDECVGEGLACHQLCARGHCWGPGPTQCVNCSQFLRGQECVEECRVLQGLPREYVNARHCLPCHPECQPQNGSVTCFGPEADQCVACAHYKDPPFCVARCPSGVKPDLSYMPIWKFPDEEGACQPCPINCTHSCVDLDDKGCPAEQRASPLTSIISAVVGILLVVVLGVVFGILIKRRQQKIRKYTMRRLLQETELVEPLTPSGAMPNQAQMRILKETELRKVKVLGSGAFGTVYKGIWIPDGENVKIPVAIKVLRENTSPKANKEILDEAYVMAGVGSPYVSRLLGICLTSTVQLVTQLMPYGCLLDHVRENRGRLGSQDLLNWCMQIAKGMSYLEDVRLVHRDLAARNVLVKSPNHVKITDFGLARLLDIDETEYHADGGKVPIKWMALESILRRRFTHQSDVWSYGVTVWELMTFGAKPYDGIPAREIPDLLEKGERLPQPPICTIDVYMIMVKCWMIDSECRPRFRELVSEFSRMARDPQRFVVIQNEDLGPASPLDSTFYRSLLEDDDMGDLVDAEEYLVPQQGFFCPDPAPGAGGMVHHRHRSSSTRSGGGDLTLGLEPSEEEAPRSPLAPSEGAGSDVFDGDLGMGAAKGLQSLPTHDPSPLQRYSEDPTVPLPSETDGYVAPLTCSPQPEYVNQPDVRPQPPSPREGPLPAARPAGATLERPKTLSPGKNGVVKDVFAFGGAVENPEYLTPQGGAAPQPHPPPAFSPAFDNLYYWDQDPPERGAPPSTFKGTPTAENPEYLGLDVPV
Put plainly: HER2-BT474 whole cell kinase ELISA. The method, then:
HER2-BT474 assays measuring whole cell HER2 activity was carried out as described below:
All the following steps are at room temperature and aseptically, unless stated otherwise. All ELISA plate washing is by rinsing with distilled water three times and once with TBST.
Incubate the cells in 5% CO2 at 37° C. overnight.
2. ELISA Plate Coating and Blocking
For orientation: ELISA stands for enzyme-linked immunosorbent assay.

In experiment [3] the test system is A431 cells. The experiment in a line: A431 growth assay (sulphorhodamine B). As to conditions: Homo sapiens, A-431, 96 h; Table V; 4 days, SRB; read-out: Estimated IC50 Growth Assays A431 cells.
Text: as §1, with “This example illustrates the ability of the exemplary compounds to inhibit receptor tyrosine kinases, such as HER2 and/or EGFR. The” for “The”
SKBR3 cells over-express HER2. A431 cells over-express EGFR. These cells were dispensed into 96-well plates with test compounds. After 4 days the monolayers were TCA-fixed then stained with sulphorhodamine B. The absorbance versus log drug concentration was plotted and IC50 values estimated.
(4) Tris, crystallized free base—Fisher Catalog #BP152 Working solution: 10 mM tris=1.211 gram Trizma base/liter H2O. […]
(11) Read optical density at dual wavelength mode 570 nm and 630 nm on Dynatech ELISA plate reader, Model MR 5000.

Read-outs that look alike come from different tables or passages of the source.

T1 sequence (P00533 25-1210): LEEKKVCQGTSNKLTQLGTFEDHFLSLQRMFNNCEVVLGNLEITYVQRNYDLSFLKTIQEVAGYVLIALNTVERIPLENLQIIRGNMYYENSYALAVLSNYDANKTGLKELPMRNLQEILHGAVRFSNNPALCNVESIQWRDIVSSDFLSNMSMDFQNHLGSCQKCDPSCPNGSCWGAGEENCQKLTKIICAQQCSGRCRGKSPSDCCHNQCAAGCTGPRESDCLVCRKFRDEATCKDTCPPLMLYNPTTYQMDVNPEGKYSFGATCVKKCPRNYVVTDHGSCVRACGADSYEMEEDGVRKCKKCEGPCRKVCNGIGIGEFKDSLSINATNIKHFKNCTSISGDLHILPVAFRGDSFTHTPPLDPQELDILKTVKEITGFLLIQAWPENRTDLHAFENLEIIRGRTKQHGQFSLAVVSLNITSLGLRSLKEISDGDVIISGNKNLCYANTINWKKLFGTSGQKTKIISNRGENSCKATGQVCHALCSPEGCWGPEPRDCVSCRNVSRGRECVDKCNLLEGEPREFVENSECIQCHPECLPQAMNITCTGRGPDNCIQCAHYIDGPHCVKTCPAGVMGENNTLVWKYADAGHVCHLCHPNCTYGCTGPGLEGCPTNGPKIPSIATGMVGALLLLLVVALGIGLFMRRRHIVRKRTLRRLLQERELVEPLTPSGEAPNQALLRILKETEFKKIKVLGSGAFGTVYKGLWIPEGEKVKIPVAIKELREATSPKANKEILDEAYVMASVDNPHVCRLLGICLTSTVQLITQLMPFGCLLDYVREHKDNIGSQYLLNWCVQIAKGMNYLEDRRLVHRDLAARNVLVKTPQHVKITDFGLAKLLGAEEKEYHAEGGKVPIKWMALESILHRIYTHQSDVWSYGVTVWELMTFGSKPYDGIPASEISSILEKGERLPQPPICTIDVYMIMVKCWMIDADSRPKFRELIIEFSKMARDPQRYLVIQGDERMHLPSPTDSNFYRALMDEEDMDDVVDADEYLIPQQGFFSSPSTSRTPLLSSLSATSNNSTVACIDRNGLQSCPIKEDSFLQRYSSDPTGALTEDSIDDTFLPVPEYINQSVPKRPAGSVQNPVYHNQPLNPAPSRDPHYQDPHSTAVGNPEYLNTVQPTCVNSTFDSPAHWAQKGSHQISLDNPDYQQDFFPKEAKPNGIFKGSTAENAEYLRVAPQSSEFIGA

Consider `Cc1ccc2ncnc(Nc3cccc(Cl)c3)c2c1` [Compound P12a], for which the IC50 was less than 50 µM in experiment [1] (Table III, cellular kinase assay, class symbol, read-out: EGFR); 0.04 µM in experiment [1] (Table V, read-out: Estimated IC50 Cellular Kinase Assays EGFR (EGF-3T3)); less than 50 µM in experiment [2] (Table III, cellular kinase assay, class symbol, read-out: HER2); 7.14 µM in experiment [2] (Table V, read-out: Estimated IC50 Cellular Kinase Assays HER2 (BT474)); 10 µM in experiment [3].
